# How the values were obtained:
# GammaA3 = test: Caspase-Glo 3/7 activity assay; type: cell-based, mouse; details: IC50 concentration
# Procedure: (§3) According to instructions, Caspase-Glo® 3/7 assay (Promega GmbH, Mannheim, Germany) was used for monitoring caspase activity. Briefly, the same volume Caspase-Glo reagent as culture medium was added and incubated 1 h at room temperature. Luminescence was read with a Victor3 Wallac 1420 Multilabel counter (PerkinElmer, Rodgau, Germany). Background absorbance (medium only) was subtracted and the data given as percent of vehicle controls.
# BetaD5 = test: Caspase-Glo 3/7 activity assay; type: cell-based, mouse; details: IC50 concentration, 24 h, vs vehicle
# Procedure: as §3
# CaCo2 = test: Whole genome expression analysis (Affymetrix microarray); type: cell-based, human; details: IC50 concentration, 96 h
# Procedure: (§1) The cells were harvested and RNA was isolated using RNeasy Mini Kit (Qiagen, Hilden, Germany) according to the instructions of the manufacturer. The isolated RNA (250 ng) was processed further using standard protocols as described recently with the exception of the 3′ IVT Express Kit (Affymetrix, High Wycombe, UK) that was utilized according to instructions. Quality control of cRNA was done with the Agilent 2100 Bioanalyzer (Agilent Tech according to manufacturer's protocols. Following fragmentation, cRNA of each sample was hybridized to Affymetrix GeneChip® Mouse Genome 430 2.0 or Human Genome U133 Plus 2.0 and scanned with an Affymetrix 3000 7G scanner.
# (§2) The resultant data was normalized by Probe Logarithmic Intensity Error Estimation (PLIER) algorithm. Statistical analysis was carried out with the ArrayTrack software (National Center for Toxicological Research/FDA, Jefferson, AR, USA) using SAM algorithm.
# A549 = test: as above; type: cell-based, human; details: IC50 concentration, 96 h
# Procedure: as §1, §2
# HepG2 = test: as above; type: cell-based, human; details: IC50 concentration, 96 h
# Procedure: as §1, §2
# c-Src = target: T1, c-Src (Homo sapiens, UniProt P12931); test: Src filter-binding kinase assay (Src Assay Kit); type: biochemical
# T1 construct: His tag; purchased Upstate (Lake Placid, NY, USA)
# T1 sequence (P12931 whole entry): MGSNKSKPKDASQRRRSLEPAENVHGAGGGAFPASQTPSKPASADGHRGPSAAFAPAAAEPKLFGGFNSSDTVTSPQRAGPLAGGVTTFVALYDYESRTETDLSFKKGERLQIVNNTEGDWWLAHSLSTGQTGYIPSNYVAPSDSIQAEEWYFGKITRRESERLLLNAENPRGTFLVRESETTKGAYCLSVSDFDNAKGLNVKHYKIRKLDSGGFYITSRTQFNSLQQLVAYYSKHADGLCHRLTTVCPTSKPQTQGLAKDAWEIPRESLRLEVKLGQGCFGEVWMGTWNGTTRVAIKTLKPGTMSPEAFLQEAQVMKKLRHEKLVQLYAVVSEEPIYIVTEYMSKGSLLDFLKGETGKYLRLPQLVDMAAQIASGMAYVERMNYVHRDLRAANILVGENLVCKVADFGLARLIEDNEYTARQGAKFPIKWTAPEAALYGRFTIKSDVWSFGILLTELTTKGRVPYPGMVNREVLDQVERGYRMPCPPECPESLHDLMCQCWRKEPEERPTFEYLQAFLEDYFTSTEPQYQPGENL
# Procedure: Baculovirus-produced recombinant purified his-tagged active against human Src and Abl were purchased from Upstate (Lake Placid, NY, USA).
# Src activity was measured in a filter-binding assay using the Src Assay Kit (Upstate, Lake Placid, NY, USA), according to the manufacturer's protocol, using the specific Src peptide substrate [[…]] in the presence of 0.125 pmol of Src and 0.160 pmol of [γ-^32P]ATP. Abl activity was measured in a filter-binding assay using an Abl specific peptide substrate (Abtide, Upstate). Reaction conditions were (in a final volume of 10 µl): 25 mM Tris-HCl pH 7.5, 1 mM DTT, 0.012 µM [γ-^32P]ATP, 0.022 µM c-Abl. Reactions were incubated 10 min at 30°C.The samples (9 µl) were spotted on paper cellulose filters which were washed according to the manufacturer's protocol. Filter-bound radioactivity was measured by liquid scintillation with a Microbeta-Trilux apparatus (PerkinElmer, Waltham, MA, USA).
# The ID50 were converted to Ki according to a competitive mechanism with respect to the substrate ATP. […] Since (i) the ATP concentration was limiting, i.e., [ATP], Km(ATP), and (ii) the enzyme concentration was not negligible with respect to the ATP concentration, the classical Cheng-Prusoff relationship was not applicable. Consequently, Ki values were calculated according to [drawing 3] (2) where S0 is the concentration of the competing substrate (ATP) and E0 is the concentration of the enzyme. Each experiment was done in triplicate and mean values were used for the interpolation. Curve fitting was performed with the program GraphPad Prism.
# [1] = tested on: murine and human tumour cell lines; test: MTS cell viability assay, statements over the cell line panel; type: cell-based; details: 96 h; cell line not stated at b77; read-out: IC50 (MTS) after 96 h of treatment
# Procedure: Three human and eleven murine cancer cell lines were used. The human NSCLC cell line A549 (ACC 107) and the human colorectal carcinoma cell line CaCo2 (ACC 169) were obtained from Deutsche Sammlung von Mikroorganismen und Zellkulturen (DSMZ, Braunschweig, Germany). The human hepatocellular carcinoma cell line HepG2 (HB-8065) was obtained from American Type Culture Collection (Manassas, VA, USA). The 11 murine NSCLC cell lines were established as described recently. Cells were grown in monolayer cultures in DMEM containing 10% foetal calf serum, 4 mmol/l L-glutamine and 2% Penicillin/Streptomycin at 37°C in a humidified atmosphere of 95% air and 5% CO2.
# Cell culture viability was monitored by CellTiter96® AQueous One Solution Cell Proliferation Assay (Promega GmbH, Mannheim, Germany). The cells were seeded in triplicates in 96-well microtitre plates and treated with the dual kinase inhibitors or vehicle (0.2% DMSO). After 24 h or 96 h of treatment the MTS tetrazolium reagent was added to the cells and incubated for 1 h. Absorbance at 490 nm was assayed with a Victor3 Wallac 1420 Multilabel counter (PerkinElmer, Waltham, MA, USA).
structure (smiles),measurement,setting,value
Clc1cccc(Nc2nc(SC3CCCC3)nc3c2cnn3CC(Cl)c2ccccc2)c1 (stereo not drawn) [Si135],Increase in caspase-3/7 activity,"GammaA3; 24 h, vs vehicle",10 fold
same,Increase in caspase-3/7 activity,GammaA3; 96 h,about 30 % of control
same,Increase in caspase-3/7 activity,BetaD5,10 fold
same,"Significantly differentially regulated genes, downregulated (number)","CaCo2; SAM FDR<0.01, FC>2",55
same,"Significantly differentially regulated genes, upregulated (number)","CaCo2; SAM FDR<0.01, FC>2",193
same,Birc5 gene expression,CaCo2; vs control,-4.36 log2 of fold change
same,Cav1 gene expression,CaCo2; vs control,1.30 log2 of fold change
same,Cdkn1a gene expression,CaCo2; vs control,1.00 log2 of fold change
same,Ceacam1 gene expression,CaCo2; vs control,1.47 log2 of fold change
same,Ceacam6 gene expression,CaCo2; vs control,1.25 log2 of fold change
same,Cxcl2 gene expression,CaCo2; vs control,1.16 log2 of fold change
same,Dusp1 gene expression,CaCo2; vs control,1.05 log2 of fold change
same,Flnc gene expression,CaCo2; vs control,1.43 log2 of fold change
same,Itga2 gene expression,CaCo2; vs control,1.02 log2 of fold change
same,Jun gene expression,CaCo2; vs control,1.51 log2 of fold change
same,Lamc2 gene expression,CaCo2; vs control,1.27 log2 of fold change
same,Mtss1 gene expression,CaCo2; vs control,-4.64 log2 of fold change
same,Ptn gene expression,CaCo2; vs control,-4.50 log2 of fold change
same,Tgfb1i1 gene expression,CaCo2; vs control,1.67 log2 of fold change
same,Thbs (thrombospondin 1) gene expression,CaCo2; vs control,-4.36 log2 of fold change
same,Tnc gene expression,CaCo2; vs control,-6.40 log2 of fold change
same,Tuba1a gene expression,CaCo2; vs control,2.27 log2 of fold change
same,"Significantly differentially regulated genes, downregulated (number)","A549; SAM FDR<0.01, FC>2",17
same,"Significantly differentially regulated genes, upregulated (number)","A549; SAM FDR<0.01, FC>2",61
same,Cdcp1 gene expression,A549; vs control,1.23 log2 of fold change
same,Ceacam6 gene expression,A549; vs control,1.63 log2 of fold change
same,Il8 gene expression,A549; vs control,1.20 log2 of fold change
same,Lamb3 gene expression,A549; vs control,1.08 log2 of fold change
same,Ptgs2 gene expression,A549; vs control,1.05 log2 of fold change
same,Vcan gene expression,A549; vs control,-4.42 log2 of fold change
same,"Significantly differentially regulated genes, downregulated (number)","HepG2; SAM FDR<0.01, FC>2",0
same,"Significantly differentially regulated genes, upregulated (number)","HepG2; SAM FDR<0.01, FC>2",87
same,Dusp1 gene expression,HepG2; vs control,1.56 log2 of fold change
same,Hnrnpr gene expression,HepG2; vs control,1.08 log2 of fold change
same,Jun gene expression,HepG2; vs control,1.34 log2 of fold change
same,Pik3ca gene expression,HepG2; vs control,2.01 log2 of fold change
same,Ptk2 (FAK) gene expression,HepG2; vs control,1.20 log2 of fold change
same,Inhibition of c-Src kinase activity,c-Src,no inhibition
same,IC50,[1],2700 nM
